In patent publication US4696928A, “Substituted dihydroimidazo[1,2-a]quinoxalines” (G. D. Searle & Co., priority 1985, dated 1987):
≈ marks a conversion by molar mass, not a printed value. Where “and” joins values, the source holds several entries; their conditions need not be identical. Equal entries are not always repeated. Where two headings read alike, the source gives them in different places.

Key:
B. fragilis NCTC 10581 = test: MIC/MBC broth microdilution, strain A; type: cell-based; settings: Bacteroides fragilis, NCTC10581, 48 h; for MBC: 99.9% reduction in viable count after 48 h; for MIC: 37° C., anaerobic
[1] = system: Clostridium perfringens NCTC 523; test: microbe, parasite or virus in culture; type: cell-based; settings: NCTC523
[2] = system: Campylobacter fetus ss.jejuni ATCC 29428; test: MIC vs. panel of anaerobes; type: cell-based; settings: ATCC29428
[3] = system: Clostridium difficile NCIB 10666; test: MIC vs. panel of anaerobes; type: cell-based; settings: Clostridioides difficile, NCIB10666; Clostridium difficile NCIB 10666; read-out: MIC
[4] = system: Propionebacterium acnes NCTC 7337; test: MIC vs. panel of anaerobes; type: cell-based
[5] = system: Fusobacterium necrophorum ATCC 11295; test: MIC vs. panel of anaerobes; type: cell-based; settings: ATCC11295
B. fragilis WS-1 = test: MIC/MBC broth microdilution, strain E; type: cell-based, Bacteroides fragilis; settings: for MIC: 37° C., anaerobic; for MBC: 99.9% reduction in viable count after 48 h
[6] = system: Bacteroides melanogenicus NCTC 9336; test: MIC vs. panel of anaerobes; type: cell-based; settings: NCTC9336
B. Fragilis ATCC 23745 = settings: for ED (1 log reduction): Bacteroides fragilis, ATCC23745, in Mus musculus, po
B. fragilis NCTC 9344 = test: MIC/MBC broth microdilution, strain C; type: cell-based, Bacteroides fragilis; settings: for MBC: 99.9% reduction in viable count after 48 h; for MIC: 37° C., anaerobic
[7] = system: Clostridium perfringens NCTC 8237; test: microbe, parasite or virus in culture; type: cell-based; settings: NCTC8237
[8] = system: Peptostreptococcus anaerobicus; test: MIC vs. panel of anaerobes; type: cell-based
[9] = system: Propionebecterium acnes NCTC 737; test: MIC vs. panel of anaerobes; type: cell-based
[10] = system: B. fragilis MZ-R ATCC 11295; test: MIC/MBC broth microdilution, strain D; type: cell-based; settings: Bacteroides fragilis, ATCC11295, 48 h; for MBC: 99.9% reduction in viable count after 48 h
[11] = system: Clostridium difficile Cytotoxic 1; test: MIC vs. panel of anaerobes; type: cell-based; settings: Clostridioides difficile
B. fragilis NCTC 9343 = test: MIC/MBC broth microdilution, strain B; type: cell-based; settings: Bacteroides fragilis, NCTC9343, 48 h; for MBC: 99.9% reduction in viable count after 48 h; for MIC: 37° C., anaerobic
[12] = Fusobacterium necrophorum ATCC 11295, read-out: MIC
[13] = Bacteroides fragilis, WS1, 48 h, read-out: MIC
[14] = Bacteroides fragilis, WS1, 48 h
[15] = 48 h, read-out: Dose giving 1 log reduction, p.o., after infection and twice daily for 2 days, 1 log (90%) reduction of CFU/ml liver homogenate vs untreated, compound of Example
[16] = Bacteroides fragilis, NCTC9344, 48 h, read-out: MBC
[17] = Bacteroides fragilis, NCTC9344, 48 h, 48 h
[18] = strain D (MZ-R), 48 h, 37° C., anaerobic, read-out: MIC
[19] = Bacteroides melanogenicus NCTC 9336, read-out: MIC
[20] = Bacteroides fragilis, NCTC9344, 48 h, read-out: MIC
[21] = Peptostreptococcus anaerobicus, read-out: MIC
[22] = Bacteroides fragilis, WS1, 48 h, 48 h

Compound: CN1CCN(c2ccc3c(c2)N2CCN=C2C(c2ccccc2)=[N+]3[O-])CC1 [Example 4, 1,2-Dihydro-8-(4-methylpiperazinyl)-4-phenylimidazo[1,2-a]-quinoxaline 5-oxide]
- MBC (B. fragilis NCTC 10581): 3.1 mg/L (≈ 8.58 µM)
- MIC (B. fragilis NCTC 10581; 48 h): 3.1 mg/L (≈ 8.58 µM)
- MIC [1]: 6.2 mg/L (≈ 17.2 µM)
- MIC [2]: 25 mg/L (≈ 69.2 µM)
- MIC [3]: 1.5 mg/L (≈ 4.15 µM)
- MIC [4]: 25 mg/L (≈ 69.2 µM)
- MIC [5, 12]: 6.2 mg/L (≈ 17.2 µM)
- MIC (B. fragilis WS-1; [13]): 6.2 mg/L (≈ 17.2 µM)
- MBC (B. fragilis WS-1; [14]): 6.2 mg/L (≈ 17.2 µM)
- MIC ([6]; Bacteroides): 12.5 mg/L (≈ 34.6 µM)
- ED (1 log reduction) (B. Fragilis ATCC 23745; [15]): 7.73 mg/kg
- MBC (B. fragilis NCTC 9344; [16]): 3.1 mg/L (≈ 8.58 µM)
- MIC (B. fragilis NCTC 9344; [17]): 3.1 mg/L (≈ 8.58 µM)
- MIC [7]: 12.5 mg/L (≈ 34.6 µM)
- MIC ([8]; Peptostreptococcus): 12.5 mg/L (≈ 34.6 µM)
- MIC [9]: 25 mg/L (≈ 69.2 µM)
- MBC ([10]; strain D (MZ-R)): 1.5 mg/L (≈ 4.15 µM)
- MIC [10, 18]: 1.5 mg/L (≈ 4.15 µM)
- MIC [11]: 6.2 mg/L (≈ 17.2 µM)
- MBC (B. fragilis NCTC 9343): 3.1 mg/L (≈ 8.58 µM)
- MIC (B. fragilis NCTC 9343; 48 h): 3.1 mg/L (≈ 8.58 µM)

Compound: [O-][N+]1=C(c2ccccc2)C2=NCCN2c2nc(Cl)ccc21 [Example 3, 8-Chloro-1,2-dihydro-4-phenylimidazo[1,2-a]pyrido[3,2-e]-pyrazine 5-oxide]
- MIC (B. fragilis NCTC 10581; read-out: MIC): 12.5 mg/L (≈ 41.8 µM)
- MBC (B. fragilis NCTC 10581): 12.5 mg/L (≈ 41.8 µM)
- MIC [1]: 6.2 mg/L (≈ 20.8 µM)
- MIC [2]: 50 mg/L (≈ 167 µM)
- MIC [3]: < 0.8 mg/L
- MIC [4]: 100 mg/L (≈ 335 µM)
- MIC [5, 12]: 6.2 mg/L (≈ 20.8 µM)
- MIC (B. fragilis WS-1; [13]): 6.2 mg/L (≈ 20.8 µM)
- MBC (B. fragilis WS-1; [14]): 6.2 mg/L (≈ 20.8 µM)
- MIC [6, 19]: 100 mg/L (≈ 335 µM)
- ED (1 log reduction) (B. Fragilis ATCC 23745; [15]): < 40 mg/kg
- MIC (B. fragilis NCTC 9344; [20]): 6.2 mg/L (≈ 20.8 µM)
- MBC (B. fragilis NCTC 9344; [16]): 6.2 mg/L (≈ 20.8 µM)
- MIC [7]: 25 mg/L (≈ 83.7 µM)
- MIC [8, 21]: 50 mg/L (≈ 167 µM)
- MIC [9]: > 100 mg/L
- MIC [10]: 3.1 mg/L (≈ 10.4 µM)
- MBC ([10]; strain D (MZ-R)): 3.1 mg/L (≈ 10.4 µM)
- MIC [11]: < 0.8 mg/L
- MIC (B. fragilis NCTC 9343; read-out: MIC): 12.5 mg/L (≈ 41.8 µM)
- MBC (B. fragilis NCTC 9343): 12.5 mg/L (≈ 41.8 µM)

Compound: [O-][N+]1=C(c2ccccc2)C2=NCCN2c2cc(F)ccc21 [Example 1, 1,2-Dihydro-8-fluoro-4-phenylimidazo[1,2-a]quinoxaline 5-oxide]
- MBC (B. fragilis NCTC 10581): 3.1 mg/L (≈ 11 µM)
- MIC (B. fragilis NCTC 10581; 48 h): 3.1 mg/L (≈ 11 µM)
- MIC [1]: 3.1 mg/L (≈ 11 µM)
- MIC [2]: 2.5 mg/L (≈ 8.89 µM)
- MIC [3]: < 0.8 mg/L
- MIC [4]: 50 mg/L (≈ 178 µM)
- MIC [5, 12]: < 0.8 mg/L
- MBC (B. fragilis WS-1; [14]): 3.1 mg/L (≈ 11 µM)
- MIC (B. fragilis WS-1; [22]): 3.1 mg/L (≈ 11 µM)
- MIC [6, 19]: 25 mg/L (≈ 88.9 µM)
- ED (1 log reduction) (B. Fragilis ATCC 23745; [15]): 7.57 mg/kg
- MIC (B. fragilis NCTC 9344; [20]): 1.5 mg/L (≈ 5.33 µM)
- MBC (B. fragilis NCTC 9344; [16]): 1.5 mg/L (≈ 5.33 µM)
- MIC [7]: 3.1 mg/L (≈ 11 µM)
- MIC [8, 21]: 25 mg/L (≈ 88.9 µM)
- MIC [9]: 50 mg/L (≈ 178 µM)
- MIC [10]: 0.8 mg/L (≈ 2.84 µM)
- MBC ([10]; strain D (MZ-R)): 1.5 mg/L (≈ 5.33 µM)
- MIC [11]: < 0.8 mg/L
- MBC (B. fragilis NCTC 9343): 3.1 mg/L (≈ 11 µM)
- MIC (B. fragilis NCTC 9343; 48 h): 3.1 mg/L (≈ 11 µM)

Compound: [O-][N+]1=C(c2ccccc2)C2=NCCN2c2cc(N3CCN(Cc4ccccc4)CC3)ccc21 [Example 6, 1,2-Dihydro-4-phenyl-8-(4-phenylmethylpiperazinyl)imidazo[1,2-a]quinoxaline5-oxide]
- MIC (B. fragilis NCTC 10581; read-out: MIC): 25 mg/L (≈ 57.1 µM)
- MBC (B. fragilis NCTC 10581): 25 mg/L (≈ 57.1 µM)
- MIC [1]: 12.5 mg/L (≈ 28.6 µM)
- MIC [2]: 100 mg/L (≈ 229 µM)
- MIC [3]: < 0.8 mg/L
- MIC [4]: 50 mg/L (≈ 114 µM)
- MIC ([5]; Fusobacterium necrophorum): 12.5 mg/L (≈ 28.6 µM)
- MIC (B. fragilis WS-1; [13]): 25 mg/L (≈ 57.1 µM)
- MBC (B. fragilis WS-1; [14]): 25 mg/L (≈ 57.1 µM)
- MIC [6, 19]: 50 mg/L (≈ 114 µM)
- ED (1 log reduction) (B. Fragilis ATCC 23745; [15]): 6.27 mg/kg
- MBC (B. fragilis NCTC 9344; [16]): 25 mg/L (≈ 57.1 µM)
- MIC (B. fragilis NCTC 9344; [17]): 12.5 mg/L (≈ 28.6 µM)
- MIC [7]: 12.5 mg/L (≈ 28.6 µM)
- MIC [8, 21]: 100 mg/L (≈ 229 µM)
- MIC [9]: 50 mg/L (≈ 114 µM)
- MBC ([10]; strain D (MZ-R)): 25 mg/L (≈ 57.1 µM)
- MIC [10, 18]: 25 mg/L (≈ 57.1 µM)
- MIC [11]: 3.1 mg/L (≈ 7.08 µM)
- MIC (B. fragilis NCTC 9343; read-out: MIC): 50 mg/L (≈ 114 µM)
- MBC (B. fragilis NCTC 9343): 50 mg/L (≈ 114 µM)

Compound: Cc1ncc([N+](=O)[O-])n1CCO [Metronidazole, reference compound]
- MIC (B. fragilis NCTC 10581; read-out: MIC): 0.6 mg/L (≈ 3.51 µM)
- MBC (B. fragilis NCTC 10581): 0.8 mg/L (≈ 4.67 µM)
- MIC (B. fragilis NCTC 10581; 48 h): < 0.8 mg/L
- MIC [1]: < 0.8 mg/L
- MIC [2]: > 100 mg/L
- MIC [4]: > 100 mg/L
- MIC [5, 12]: 6.2 mg/L (≈ 36.2 µM)
- MIC (B. fragilis WS-1; 48 h): < 0.8 mg/L and 0.8 mg/L
- MIC (B. fragilis WS-1; [22]): 1.5 mg/L (≈ 8.76 µM)
- MIC [6, 19]: > 100 mg/L
- reduction in B. fragilis (B. Fragilis ATCC 23745; 40 mg/kg (p.o.)): 3-3.5 log10
- ED (1 log reduction) (B. Fragilis ATCC 23745; read-out: Dose giving 1 log reduction, Metronidazole, p.o., positive control beside the compound of the same line): 1.64 mg/kg
- MBC (B. fragilis NCTC 9344): 0.8 mg/L and < 0.8 mg/L
- MIC (B. fragilis NCTC 9344; 48 h): 0.8 mg/L (≈ 4.67 µM)
- MIC (B. fragilis NCTC 9344; [20]): 0.6 mg/L (≈ 3.51 µM)
- MBC (B. fragilis NCTC 9344; [16]): 0.6 mg/L (≈ 3.51 µM)
- MIC (B. fragilis NCTC 9344; [17]): < 0.8 mg/L
- MIC [7]: 1.5 mg/L (≈ 8.76 µM)
- MIC [8, 21]: > 100 mg/L
- MIC [9]: > 100 mg/L
- MIC [10]: 3.1 mg/L (≈ 18.1 µM)
- MIC [11]: < 0.8 mg/L
- MIC (B. fragilis NCTC 9343; read-out: MIC): 0.6 mg/L (≈ 3.51 µM)
- MIC (B. fragilis NCTC 9343; 48 h): 0.8 mg/L (≈ 4.67 µM)

Compound: [O-][N+]1=C(c2ccccc2)C2=NCCN2c2nc(N3CCN(Cc4ccccc4)CC3)ccc21 [Example 17, 1,2-Dihydro-4-phenyl-8-(4-phenylmethylpiperazinyl)imidazo[1,2-a]pyrido[3,2-e]pyrazine 5-oxide]
- ED (1 log reduction) (B. Fragilis ATCC 23745; [15]): 3.59 mg/kg
